Experimental data taken from ChEMBL document CHEMBL1201862, “PubChem BioAssay data set” (2004).
The source made the active and inactive calls.

Legend:
[1] = target: T1, Corticotropin-releasing factor receptor 2/Corticotropin-releasing factor-binding protein (Homo sapiens, UniProt P24387+Q13324); assay: activators of CRF receptor 2 with binding protein – uHTS hits, confirmation (AID 602473); assay type: functional; settings: read-out: EC50_Mean
T1 sequence (Q13324 whole entry): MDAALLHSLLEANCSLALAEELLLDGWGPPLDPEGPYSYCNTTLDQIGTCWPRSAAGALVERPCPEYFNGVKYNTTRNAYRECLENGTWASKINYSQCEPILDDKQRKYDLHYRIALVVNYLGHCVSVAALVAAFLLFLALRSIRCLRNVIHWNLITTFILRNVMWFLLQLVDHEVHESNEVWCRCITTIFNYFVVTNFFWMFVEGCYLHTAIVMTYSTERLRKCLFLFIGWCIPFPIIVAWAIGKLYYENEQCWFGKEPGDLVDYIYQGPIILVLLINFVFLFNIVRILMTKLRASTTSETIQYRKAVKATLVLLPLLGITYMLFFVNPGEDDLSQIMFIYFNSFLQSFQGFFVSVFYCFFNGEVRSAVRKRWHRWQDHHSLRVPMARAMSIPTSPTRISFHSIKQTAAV
T1 sequence (P24387 whole entry): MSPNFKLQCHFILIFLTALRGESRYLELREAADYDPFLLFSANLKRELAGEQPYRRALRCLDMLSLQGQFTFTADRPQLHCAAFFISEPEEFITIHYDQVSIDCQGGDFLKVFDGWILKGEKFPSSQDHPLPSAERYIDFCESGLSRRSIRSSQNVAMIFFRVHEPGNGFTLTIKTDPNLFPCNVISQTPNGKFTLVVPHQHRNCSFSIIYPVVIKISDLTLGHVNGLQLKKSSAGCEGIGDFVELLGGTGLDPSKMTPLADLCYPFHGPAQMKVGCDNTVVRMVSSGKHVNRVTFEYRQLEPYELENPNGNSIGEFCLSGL

Streptokinase A = target: T2, Streptokinase A (Streptococcus pyogenes serotype M1, UniProt P10520); assay: S. pyogenes streptokinase expression inhibitors, potency, dose response, plasminogen activation absorbance, OD405 (AID 1914); assay type: functional, Streptococcus pyogenes M1 GAS;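 note: secreted streptokinase activity via plasminogen activation per viability signal from cell pellet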
T2 sequence (P10520 whole entry): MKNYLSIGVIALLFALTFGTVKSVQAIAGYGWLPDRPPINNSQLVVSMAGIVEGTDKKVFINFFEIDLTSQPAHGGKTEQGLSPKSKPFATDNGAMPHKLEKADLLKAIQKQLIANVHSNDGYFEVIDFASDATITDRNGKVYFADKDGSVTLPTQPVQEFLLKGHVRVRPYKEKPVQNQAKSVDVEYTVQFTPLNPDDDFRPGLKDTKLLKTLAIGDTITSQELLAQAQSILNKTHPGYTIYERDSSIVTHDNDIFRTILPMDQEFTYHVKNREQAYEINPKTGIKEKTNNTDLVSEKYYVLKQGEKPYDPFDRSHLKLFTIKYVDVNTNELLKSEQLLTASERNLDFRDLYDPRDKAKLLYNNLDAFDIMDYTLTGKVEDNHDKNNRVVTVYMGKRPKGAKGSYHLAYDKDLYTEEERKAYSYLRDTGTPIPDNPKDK

[2] = target: T1, Corticotropin-releasing factor receptor 2/Corticotropin-releasing factor-binding protein; assay: Dose Response confirmation of uHTS hits for small molecule antagonists of the CRF-binding protein and CRF-R2 receptor complex.; assay type: functional; settings: read-out: IC50_Mean
[3] = CRF-BP/CRF-R2 complex antagonists, dose response, cell-based, uHTS hits, 384-well (AID 651639); assay type: functional, Homo sapiens; settings: read-out: IC50_Mean
Streptococcus = assay: Group A Streptococcus viability loss, dose response, counter-screen for streptokinase expression inhibitor project, luminescence, BacTiterGlo (AID 1915); assay type: functional, organism-based;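 note: potency for reduction of bacterial viability or growth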
[4] = tested on: Streptococcus sp. 'group A'; assay: growth inhibition of control SK(-) GAS strain, dose response, counter-screen for streptokinase expression inhibitor project, luminescence, kanamycin, BacTiterGlo, confirmation (AID 1900); assay type: functional, organism-based
[5] = HEp-2 cell cytotoxicity, dose response, cytotoxicity control for RSV inhibitor project, HTS (AID 2410); assay type: functional; settings: human respiratory syncytial virus
Fatty acid synthase [6] = target: T3, Fatty acid synthase (Homo sapiens, UniProt P49327); assay: FAS thioesterase domain inhibitors, dose response, biochemical, endpoint fluorescence intensity, uHTS hits (AID 624327); assay type: functional;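 note: fluorescence from hydrolysis of an O-methyl fluorescein acyl ester substrate by the enzyme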
T3 sequence (P49327 whole entry, the tested form may be a part): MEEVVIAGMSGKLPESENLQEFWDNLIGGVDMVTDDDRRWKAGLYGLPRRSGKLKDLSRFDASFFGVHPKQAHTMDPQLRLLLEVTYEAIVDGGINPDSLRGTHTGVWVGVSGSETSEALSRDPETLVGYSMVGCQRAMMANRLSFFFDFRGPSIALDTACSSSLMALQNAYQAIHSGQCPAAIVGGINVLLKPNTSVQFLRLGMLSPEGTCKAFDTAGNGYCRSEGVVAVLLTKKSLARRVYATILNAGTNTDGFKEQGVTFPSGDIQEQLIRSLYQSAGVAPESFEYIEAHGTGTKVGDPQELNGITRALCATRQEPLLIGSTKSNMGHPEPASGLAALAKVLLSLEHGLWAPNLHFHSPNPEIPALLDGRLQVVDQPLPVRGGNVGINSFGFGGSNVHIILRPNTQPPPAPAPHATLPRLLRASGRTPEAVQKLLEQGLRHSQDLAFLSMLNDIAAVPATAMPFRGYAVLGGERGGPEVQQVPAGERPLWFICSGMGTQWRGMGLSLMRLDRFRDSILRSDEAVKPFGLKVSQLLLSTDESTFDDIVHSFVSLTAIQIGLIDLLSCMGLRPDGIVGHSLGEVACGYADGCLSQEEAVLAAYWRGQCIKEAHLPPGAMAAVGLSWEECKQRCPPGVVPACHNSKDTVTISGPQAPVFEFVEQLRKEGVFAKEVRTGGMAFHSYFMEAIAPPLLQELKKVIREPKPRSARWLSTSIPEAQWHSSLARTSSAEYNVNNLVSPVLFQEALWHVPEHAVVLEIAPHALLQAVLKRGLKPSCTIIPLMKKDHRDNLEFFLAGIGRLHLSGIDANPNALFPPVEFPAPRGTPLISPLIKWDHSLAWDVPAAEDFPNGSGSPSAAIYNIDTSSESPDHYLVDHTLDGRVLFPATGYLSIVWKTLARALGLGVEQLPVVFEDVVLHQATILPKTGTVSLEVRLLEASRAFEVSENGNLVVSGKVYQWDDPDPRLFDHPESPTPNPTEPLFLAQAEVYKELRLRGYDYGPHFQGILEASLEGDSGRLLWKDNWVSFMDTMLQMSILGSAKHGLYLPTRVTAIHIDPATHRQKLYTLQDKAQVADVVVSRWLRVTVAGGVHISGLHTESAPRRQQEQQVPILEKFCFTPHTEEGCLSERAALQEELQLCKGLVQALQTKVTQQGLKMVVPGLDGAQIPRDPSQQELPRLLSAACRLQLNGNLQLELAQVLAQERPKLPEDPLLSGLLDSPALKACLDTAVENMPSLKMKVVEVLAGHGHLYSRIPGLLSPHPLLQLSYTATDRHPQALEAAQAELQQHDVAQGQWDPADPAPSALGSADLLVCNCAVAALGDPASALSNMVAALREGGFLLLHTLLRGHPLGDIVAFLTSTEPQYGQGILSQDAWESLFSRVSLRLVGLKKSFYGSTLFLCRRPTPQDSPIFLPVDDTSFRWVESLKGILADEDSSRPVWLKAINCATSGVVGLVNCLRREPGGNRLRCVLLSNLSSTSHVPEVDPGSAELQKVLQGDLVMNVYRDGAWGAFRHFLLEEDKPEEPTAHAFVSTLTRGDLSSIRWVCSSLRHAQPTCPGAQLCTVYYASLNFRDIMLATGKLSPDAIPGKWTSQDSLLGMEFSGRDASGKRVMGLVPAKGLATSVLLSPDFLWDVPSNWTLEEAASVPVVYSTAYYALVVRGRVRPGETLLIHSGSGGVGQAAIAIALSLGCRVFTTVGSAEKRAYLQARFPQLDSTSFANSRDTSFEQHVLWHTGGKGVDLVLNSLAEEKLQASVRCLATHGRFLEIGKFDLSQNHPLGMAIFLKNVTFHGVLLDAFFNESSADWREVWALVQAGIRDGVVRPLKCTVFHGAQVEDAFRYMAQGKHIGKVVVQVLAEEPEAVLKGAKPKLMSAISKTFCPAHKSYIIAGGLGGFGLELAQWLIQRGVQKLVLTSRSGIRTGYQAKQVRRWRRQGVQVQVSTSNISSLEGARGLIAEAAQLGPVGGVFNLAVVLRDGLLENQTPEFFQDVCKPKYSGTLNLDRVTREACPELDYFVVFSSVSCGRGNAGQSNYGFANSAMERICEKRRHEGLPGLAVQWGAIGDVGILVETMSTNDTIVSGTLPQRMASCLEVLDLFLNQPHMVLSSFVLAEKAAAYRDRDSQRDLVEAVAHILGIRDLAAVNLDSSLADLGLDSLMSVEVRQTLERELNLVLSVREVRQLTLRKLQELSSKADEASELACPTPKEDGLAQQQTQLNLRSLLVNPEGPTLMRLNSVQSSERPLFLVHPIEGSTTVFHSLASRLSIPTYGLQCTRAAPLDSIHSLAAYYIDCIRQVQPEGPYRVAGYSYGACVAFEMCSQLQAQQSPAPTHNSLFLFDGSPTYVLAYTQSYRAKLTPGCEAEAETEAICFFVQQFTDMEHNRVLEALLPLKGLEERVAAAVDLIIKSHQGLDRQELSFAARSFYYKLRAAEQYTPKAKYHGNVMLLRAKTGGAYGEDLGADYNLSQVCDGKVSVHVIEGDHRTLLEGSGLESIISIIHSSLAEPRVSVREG

Fatty acid synthase [7] = target: T3, Fatty acid synthase; assay: FAS thioesterase domain inhibitors, dose response, biochemical, kinetic fluorescence intensity (AID 624326); assay type: functional;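 note: rate of fluorescence rise from hydrolysis of a fluorogenic O-methyl fluorescein ester substrate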
[8] = target: T4, Heat shock factor protein 1 (Mus musculus, UniProt P38532); assay: HSF1 potentiators in luciferase reporter cells, confirmation, cell-based, NIH3T3, luminescence, dose retest (AID 435004); assay type: functional;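 note: stress induced by proteasome inhibitor MG132 added 30 min after compound; luciferase reporter driven by HSF1 response element in NIH3T3 cells; actives raise luminescence as potentiators of the MG132 stress response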
T4 sequence (P38532 whole entry): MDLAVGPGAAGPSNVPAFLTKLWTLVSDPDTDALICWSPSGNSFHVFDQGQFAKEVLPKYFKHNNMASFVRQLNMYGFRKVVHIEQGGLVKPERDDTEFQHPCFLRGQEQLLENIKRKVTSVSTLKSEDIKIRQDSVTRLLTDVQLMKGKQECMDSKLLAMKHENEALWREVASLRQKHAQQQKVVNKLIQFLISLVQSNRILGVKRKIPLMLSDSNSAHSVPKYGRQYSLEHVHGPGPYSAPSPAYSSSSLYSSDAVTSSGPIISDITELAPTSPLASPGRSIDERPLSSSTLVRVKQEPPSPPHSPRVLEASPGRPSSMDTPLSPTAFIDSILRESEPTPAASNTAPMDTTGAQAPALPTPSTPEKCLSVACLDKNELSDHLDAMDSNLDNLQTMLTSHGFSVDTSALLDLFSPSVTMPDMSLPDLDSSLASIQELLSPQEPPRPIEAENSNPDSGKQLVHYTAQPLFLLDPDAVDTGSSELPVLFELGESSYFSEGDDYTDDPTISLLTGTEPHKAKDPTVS

Prothrombin = Prothrombin (Homo sapiens, UniProt P00734); assay: Thrombin 1536 HTS Dose Response Confirmation. [Related pubchem assays: 1046 (Thrombin 1536 HTS; hits were confirmed in this assay)]; assay type: functional
Cytochrome P450 2C9 = Cytochrome P450 2C9 (Homo sapiens, UniProt P11712)
Cytochrome P450 2C9, sequence (P11712 whole entry): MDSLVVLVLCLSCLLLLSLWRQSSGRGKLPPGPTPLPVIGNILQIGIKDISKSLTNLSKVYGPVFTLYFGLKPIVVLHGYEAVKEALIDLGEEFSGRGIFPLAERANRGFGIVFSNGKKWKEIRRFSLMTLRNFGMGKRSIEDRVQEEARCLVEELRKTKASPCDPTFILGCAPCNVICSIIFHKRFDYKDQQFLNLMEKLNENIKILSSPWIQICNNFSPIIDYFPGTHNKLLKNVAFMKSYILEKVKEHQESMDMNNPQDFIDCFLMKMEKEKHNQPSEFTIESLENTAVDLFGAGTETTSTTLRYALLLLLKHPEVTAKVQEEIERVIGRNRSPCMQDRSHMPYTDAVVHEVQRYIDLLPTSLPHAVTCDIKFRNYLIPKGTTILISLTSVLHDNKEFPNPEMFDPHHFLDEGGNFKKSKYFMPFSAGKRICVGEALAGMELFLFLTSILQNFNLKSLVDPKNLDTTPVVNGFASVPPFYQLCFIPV

Cytochrome P450 1A2 = target: T5, Cytochrome P450 1A2 (Homo sapiens, UniProt P05177);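 note: PubChem cytochrome P450 panel assay, CYP1A2 panel member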
T5 sequence (P05177 whole entry): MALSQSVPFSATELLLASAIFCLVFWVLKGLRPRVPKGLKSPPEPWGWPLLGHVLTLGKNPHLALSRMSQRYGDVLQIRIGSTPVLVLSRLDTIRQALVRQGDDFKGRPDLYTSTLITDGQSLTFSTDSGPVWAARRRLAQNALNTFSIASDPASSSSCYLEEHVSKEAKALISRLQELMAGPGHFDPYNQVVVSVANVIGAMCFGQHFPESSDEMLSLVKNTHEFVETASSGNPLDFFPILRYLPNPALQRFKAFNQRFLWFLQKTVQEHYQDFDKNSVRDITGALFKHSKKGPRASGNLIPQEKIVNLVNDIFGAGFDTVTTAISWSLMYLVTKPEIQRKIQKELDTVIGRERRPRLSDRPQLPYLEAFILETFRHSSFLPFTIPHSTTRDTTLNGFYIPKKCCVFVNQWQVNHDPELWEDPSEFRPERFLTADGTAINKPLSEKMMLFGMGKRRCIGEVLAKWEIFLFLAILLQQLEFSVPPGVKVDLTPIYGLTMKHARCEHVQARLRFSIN

Estrogen receptor beta = Estrogen receptor beta (Homo sapiens, UniProt Q92731);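 note: recombinant ER-beta bound to coactivator SRC1 peptide in presence of estradiol agonist; inhibitors block coactivator peptide binding and lower the FRET signal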
Estrogen receptor beta, sequence (Q92731 whole entry): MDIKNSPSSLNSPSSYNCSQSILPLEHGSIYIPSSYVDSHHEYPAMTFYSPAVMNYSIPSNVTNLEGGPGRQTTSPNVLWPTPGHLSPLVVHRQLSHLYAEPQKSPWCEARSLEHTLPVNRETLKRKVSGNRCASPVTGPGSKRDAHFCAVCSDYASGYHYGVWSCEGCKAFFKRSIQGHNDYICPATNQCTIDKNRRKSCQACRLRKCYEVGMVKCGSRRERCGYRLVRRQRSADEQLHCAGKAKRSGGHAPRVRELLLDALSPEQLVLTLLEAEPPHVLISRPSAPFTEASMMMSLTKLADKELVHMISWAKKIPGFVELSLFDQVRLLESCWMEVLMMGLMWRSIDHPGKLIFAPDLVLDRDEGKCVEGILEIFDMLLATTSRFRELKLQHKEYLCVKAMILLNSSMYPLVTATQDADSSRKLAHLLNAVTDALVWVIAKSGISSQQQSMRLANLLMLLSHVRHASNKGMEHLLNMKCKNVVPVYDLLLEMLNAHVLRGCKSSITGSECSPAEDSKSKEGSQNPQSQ

Vero = assay: cells; assay type: functional; settings: Chlorocebus sabaeus
[9] = target: T6, DNA repair protein RAD52 homolog (Homo sapiens, UniProt P43351); assay type: functional, biochemical
T6 sequence (P43351 whole entry): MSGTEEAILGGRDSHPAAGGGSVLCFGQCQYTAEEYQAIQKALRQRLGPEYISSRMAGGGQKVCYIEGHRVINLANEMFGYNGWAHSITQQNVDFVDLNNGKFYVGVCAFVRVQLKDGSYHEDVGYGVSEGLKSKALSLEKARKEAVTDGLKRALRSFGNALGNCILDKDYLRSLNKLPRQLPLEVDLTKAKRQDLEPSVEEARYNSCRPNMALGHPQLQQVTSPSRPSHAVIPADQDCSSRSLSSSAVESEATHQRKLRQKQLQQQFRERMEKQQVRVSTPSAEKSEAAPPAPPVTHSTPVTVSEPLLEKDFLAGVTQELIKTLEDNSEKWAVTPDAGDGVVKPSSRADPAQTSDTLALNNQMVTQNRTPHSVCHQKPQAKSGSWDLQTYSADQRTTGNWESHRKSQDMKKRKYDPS

In the case of `COC(=O)c1sc(-c2ccc(C(C)(C)C)cc2)cc1NC(=O)CSCC(=O)O`, the EC50 [1] is reported as 36.8 µM (active), the EC50 (Streptokinase A) is reported as 6.69 µM (active) and the IC50 [2] is reported as 4.1 µM (active). The IC50 [3] was 14.1 µM (active), the EC50 (Streptococcus) was 12.1 µM (active) and the EC50 [4] was 8.94 µM (active). For the same compound, the CC50 [5] was 15.7 µM (active).
For `COc1cccc(NC(=O)CN2C(=O)CSc3ccc(S(=O)(=O)N4CCC(C)CC4)cc32)c1`, the IC50 (Fatty acid synthase [6]) was 6.24 µM (active) and the IC50 (Fatty acid synthase [7]) was 2.44 µM (active).
In the case of `O=C(Cn1nc(-c2ccco2)ccc1=O)Nc1cc(C(F)(F)F)ccc1Cl`, the IC50 (Fatty acid synthase [6]) is reported as 11.8 µM (active) and the IC50 (Fatty acid synthase [7]) is reported as 13.1 µM (active).
With `O=[N+]([O-])c1ccc(Sc2ccccc2)nc1` the EC50 [8] was > 260 µM (inactive), the EC50 [1] was > 53 µM (inactive) and the IC50 [2] was < 0.368 µM (active). The IC50 [3] was 5.42 µM (active).
In the case of `COc1ccccc1NC(=O)c1sc2ncn(Cc3cccc(C)c3)c(=O)c2c1C`, the IC50 (Prothrombin) is reported as > 50 µM (not active).
With `CC1CCN(S(=O)(=O)c2ccc3c(c2)c(=O)c(C(=O)NCc2ccco2)cn3C)CC1` the IC50 (Fatty acid synthase [6]) was 3.81 µM (active) and the IC50 (Fatty acid synthase [7]) was 2.4 µM (active).
With `CCn1cc(C(=O)NCc2ccco2)c(=O)c2cc(S(=O)(=O)N3CCCC3)ccc21` the IC50 (Prothrombin) was 1.31 µM (active).
With `Cc1nc(Sc2ccccc2)c(C#N)c(C)c1[N+](=O)[O-]` the IC50 (Fatty acid synthase [6]) was 13.9 µM (active) and the IC50 (Fatty acid synthase [7]) was 8.81 µM (active).
In the case of `CCCC(=O)n1nc(-c2ccccc2)nc1SC`, the IC50 (Prothrombin) is reported as 0.935 µM (active).
With `COC(=O)c1nnc(NC(=O)c2ccccc2)[nH]1` the AC50 (Cytochrome P450 2C9) was 3.98 µM (inconclusive), the IC50 (Prothrombin) was 0.0545 µM (active) and the AC50 (Cytochrome P450 1A2) was 17.8 µM (inconclusive).
In the case of `O=C(Nc1nccs1)c1ccc2nccnc2c1`, the IC50 (Estrogen receptor beta) is reported as 14.9 µM (active).
In the case of `CC(C)c1ccc(S(=O)(=O)c2nnn3c2nc(NCC2CCCO2)c2ccccc23)cc1` (stereo not drawn), the IC50 (Fatty acid synthase [6]) is reported as 1.72 µM (active) and the IC50 (Fatty acid synthase [7]) is reported as 1.34 µM (active).
For `CCCCc1nc2sc3c(SCCN(C)C)ncnc3c2c2c1CCC2`, the CC50 (Vero) was 20.6 µM (active) and the AC50 [9] was 19.7 µM (active).
With `Nc1nonc1NC(=O)CSc1ncccc1C(=O)O` the IC50 (Estrogen receptor beta) was > 50 µM (not active).
For `CC(C)N1CCc2c(sc(NC(=O)c3cc4cc([N+](=O)[O-])ccc4s3)c2C(N)=O)C1`, the EC50 [1] was > 53 µM (inactive) and the AC50 [9] was 10.3 µM (active).
